Test results reported in ChEMBL document CHEMBL1150080, “Asimilobin and cis- and trans-murisolinones, novel bioactive Annonaceous acetogenins from the seeds of Asimina triloba” (J Nat Prod, 1995).
≈ marks a conversion by molar mass, not a printed value.

Columns and labels:
PC-3 = experiment: Cytotoxicity against human PC3 cells after 7 days by MTT assay; type: functional; settings: PC-3, 168 h, read-out: ED50 (the source's name)
HT-29 = experiment: Cytotoxicity against human HT-29 cells after 7 days by MTT assay; type: functional; settings: HT-29, 168 h, read-out: ED50 (the source's name)
MIA PaCa-2 = experiment: Cytotoxicity against human MIAPaCa2 cells after 7 days by MTT assay; type: functional; settings: MIA PaCa-2, 168 h, read-out: ED50 (the source's name)
A549 = experiment: Cytotoxicity against human A549 cells after 7 days by MTT assay; type: functional; settings: A549, 168 h, read-out: ED50 (the source's name)
MCF7 = experiment: Cytotoxicity against human MCF7 cells after 7 days by MTT assay; type: functional; settings: MCF7, 168 h, read-out: ED50 (the source's name)
[1] = Toxicity to brine shrimp larvae; type: organism-based; settings: artemia, in vivo
A498 = experiment: Cytotoxicity against human A498 cells after 7 days by MTT assay; type: functional; settings: A498, 168 h, read-out: ED50 (the source's name)

| SMILES | EC50 (PC-3) [µg/mL] | EC50 (HT-29) [µg/mL] | EC50 (MIA PaCa-2) [µg/mL] | EC50 (A549) [µg/mL] | EC50 (MCF7) [µg/mL] | LC50 [1] [µg/mL] | EC50 (A498) [µg/mL] |
| --- | --- | --- | --- | --- | --- | --- | --- |
| CCCCCCCCCCCCCC[C@H](O)[C@@H]1CC[C@@H]([C@@H]2CC[C@@H](CCCCC[C@@H](O)CC3=C[C@H](C)OC3=O)O2)O1 [ASIMILOBIN] | 1.47 (≈ 2.54 µM) | 0.063 (≈ 0.109 µM) | 0.104 (≈ 0.18 µM) | 0.0301 (≈ 0.052 µM) | 2.14 (≈ 3.7 µM) | 1.06 (≈ 1.83 µM) | 0.0226 (≈ 0.039 µM) |
| CCCCCCCCCCC[C@@H](O)[C@H]1CC[C@H]([C@H](O)CCCCCCCCCC[C@@H]2C[C@H](CC(C)=O)C(=O)O2)O1 | 1.48 (≈ 2.61 µM) | 0.754 (≈ 1.33 µM) | 0.107 (≈ 0.189 µM) | 0.148 (≈ 0.261 µM) | 0.0793 (≈ 0.14 µM) | 12.3 (≈ 21.7 µM) | 3.44 (≈ 6.07 µM) |
| COc1cccc2c1C(=O)c1c(O)c3c(c(O)c1C2=O)C[C@@](O)(C(=O)CO)C[C@@H]3O[C@H]1C[C@H](N)[C@H](O)[C@H](C)O1 [DOXORUBICIN] | 0.0196 (≈ 0.0361 µM) | 0.0262 (≈ 0.0482 µM) | 0.00132 (≈ 0.00243 µM) | 0.00101 (≈ 0.00186 µM) | 0.0103 (≈ 0.019 µM) | – | – |
| CCCCCCCCCCC[C@@H](O)[C@H]1CC[C@H]([C@H](O)CCCCCCCCCC[C@H]2C[C@H](CC(C)=O)C(=O)O2)O1 | 0.214 (≈ 0.378 µM) | 1.16 (≈ 2.05 µM) | 0.0059 (≈ 0.0104 µM) | 0.0276 (≈ 0.0487 µM) | 0.0296 (≈ 0.0522 µM) | 18.2 (≈ 32.1 µM) | 1.23 (≈ 2.17 µM) |
